# Patent publication US20190336496A1, “SELECTIVE BCL-2 INHIBITORS IN COMBINATION WITH AN ANTI-PD-1 OR AN ANTI-PD-L1 ANTIBODY FOR THE TREATMENT OF CANCERS” (AbbVie Inc., priority 2018, published 2019)
# Legend:
# [1] = test system: CT26, MC38 and EMT6 cells; experiment: In vitro sensitivity of CT26, EMT6 and MC38 cells (FIG. 1); assay type: cell-based, mouse; conditions: increasing doses, CellTiter-Glo after 72 hours
# Experimental: FIG. 1: In vitro sensitivity of CT26, EMT6 and MC38 cells to Compound (I). […] CT26, MC38 and EMT6 cells were incubated with increasing doses of Compound (I) and viability was measured using CellTiter®-Glo (Promega) after 72 hours as described in Example 1.
# Cancer Immunol Res. 5; 29-41 (2017)). Any reduction in checkpoint inhibitor-mediated tumor growth inhibition or response rates caused by the addition of venetoclax would indicate potential antagonism. The panel was composed of syngeneic models of solid tumors: CT26, MC38 (both colorectal carcinoma) and EMT6 (breast cancer). […] Likewise, only modest anti-tumor activity could be observed in these models with venetoclax alone, dosed daily at 50 mg/kg for 14 days (FIG. 3, FIG. 6, FIGS. 12A, 12B, 12C, and 12D). […] Rather, it enhanced their efficacy in certain cases.
# [2] = test system: MC38 tumors; experiment: MC38 model in immune deficient SCID mice; assay type: in vivo, mouse
# Experimental: All experiments were conducted in compliance with the National Institutes of Health Guide for Care and Use of Laboratory Animals guidelines in a facility accredited by the Association for the Assessment and Accreditation of Laboratory Animal Care (AAALAC). BALB/c, C57BL/6, CB6F1 (C57BL/6 bred with BALB/c) and SCID mice were obtained from Charles River (Wilmington, Mass.). SCID mice have severe combined immune deficiency (SCID) and are characterized by an absence of functional T- and B-cells.
# To further test the direct effects of venetoclax on the immune cells, SCID mice were transplanted with MC38 cells and treated with vehicle or anti-PD-1/PD-L1/venetoclax as single agent and in combinations (FIGS. 12E and 12F).
# [3] = test system: CD4 T-cells co-cultured with MoDCs; experiment: Mixed lymphocyte reaction (MLR) assay; assay type: cell-based, human
# Experimental: Mixed Lymphocyte Reaction (MLR) assay was used to examine venetoclax effect on T-cell function in response to immune stimulation. Monocytic-derived dendritic cells (MoDCs) were generated from fresh human blood. PBMCs were isolated using a Ficoll gradient. The PBMCs were allowed to adhere for 2 hours. After 2 hours, cells in suspension were removed. Fresh AIM V™ medium (ThermoFisher cat. #12055091) supplemented with granulocyte-macrophage colony-stimulating factor (GM-CSF, 80 ng/mL) and IL-4 (50 ng/mL) was added to the culture. After 5 days, the MoDCs were stimulated with IL-1α and TNF-α (0.2 ng/mL each) for 48 hours to increase major histocompatibility complex class II molecules (MHCII) expression. These activated MoDCs were then co-cultured with CD4 T-cells (Biospecialty Corp.) at a ratio of 10:1 (T-cells:MoDCs) in a mixed lymphocyte reaction (MLR). The cells were treated with control IgG (Isotype) or anti-PD-1 antibody (nivolumab or ABBV-181 along with either dimethyl sulfoxide (DMSO) or BCL-2 inhibitors venetoclax (Compound (I)) or Compounds (II) or (III). Antibodies were added at 10 μg/mL and the compound concentrations of venetoclax were as indicated in FIG. 11. The MLR was cultured for 5 days, after which the cells were analyzed by flow cytometry using an LSRFortessa™ X-20 instrument (BD Biosciences) to determine cell number and functional cytokine (IFNγ) responses.
# [4] = test system: CMV-positive human PBMCs; experiment: CMV recall assay using human CMV+ PBMC; assay type: cell-based
# Experimental: The cytomegalovirus (CMV) recall assay was used to assess the functional effects of Compound (I) on antigen-specific immune cells. This assay used CMV antigen to stimulate pre-existing memory T-cells in CMV-positive human PBMCs. Human CMV-positive PBMCs and CMV antigen were purchased from Astarte Biologics (Cat.No:1001 and Cat. No. 1004, respectively). To measure whether T cells from CMV-positive donor are functionally active, 2×10^5 CMV-positive PBMCs were stimulated with 0.05 μg/mL of CMV antigen and at the same time venetoclax was added. The cells were cultured in Roswell Park Memorial Institute (RPMI) media supplemented with 10% fetal bovine serum (FBS). On day 4, cells were quickly re-stimulated with phorbol 12-myristate-13-acetate (PMA, 0.08 μM)/ionomycin (1.3 μM) and treated with brefeldin A (5 μg/mL) for 4 hours. Cells were stained with the following commercial antibodies: CD3, CD4, IFNγ, and IL-2 (all from Biolegend), as well as with the Zombie Green™ fixable viability kit. Cells were analyzed using an LSRFortessa™ X-20 instrument (BD Biosciences).
# The remaining live cells were gated by CD3 and CD4 expression whereas CD3^+CD4^+ cells were considered as CD4^+ T-cells and CD3^+CD4^− cells were considered as CD8^+ T-cells. Production of IFNγ and IL-2 cytokines by CD8+ T-cells was assessed by flow cytometry (FIG. 10B, 10C).
# [5] = test system: mouse splenocytes; experiment: In vitro sensitivity of mouse splenocytes; assay type: cell-based; conditions: BALB/c and C57BL/6 splenocytes, 24 hours
# Experimental: Mouse splenocytes were plated at a density of 5×10^5 cells per well in a 48-well plate with 30 U/mL IL-2. Cells were cultured for 24 hours and then increasing concentrations of venetoclax were added for an additional 24 hours (DMSO was used as control). Cells were harvested, stained and subjected to flow cytometry analysis with an LSRFortessa™ X-20 instrument (BD Biosciences).
# To further explore the mechanism for immune modulation in mice, splenocytes from BALB/c and C57BL/6 mice were treated in vitro with venetoclax for 24 hours. The two types of memory T-cells in mice are central memory (TCM; […]) and effector memory T-cells (TEM; […]). While naïve T-cells (CD62L^+CD44^−) were sensitive to venetoclax, effector memory T-cells were not and, importantly, their proportion increased relative to surviving T-cells with increased concentrations of venetoclax. Central memory T-cells were not affected by venetoclax under these experimental conditions (FIG. 9).
smiles,measurement,setting,value
"CC1(C)CCC(CN2CCN(c3ccc(C(=O)NS(=O)(=O)c4ccc(NCC5CCOCC5)c([N+](=O)[O-])c4)c(Oc4cnc5[nH]ccc5c4)c3)CC2)=C(c2ccc(Cl)cc2)C1 [Compound (I), venetoclax]",in vitro sensitivity (viability),[1],resistant
same,in vitro sensitivity (viability),[1]; listed as venetoclax,None of these tumor cell lines exhibited sensitivity
same,anti-tumor efficacy / tumor growth in SCID mice,[2],did not show anti-tumor efficacy
same,IFNγ detected in the supernatant,[3]; MLR 5 days,same amount
same,proportion of CD4+ T-cells that produce IFNγ,"[3]; MLR 5 days, with isotype control or anti-PD-1 antibody",increase
same,number of CD4+ T-cells,"[3]; MLR cultured 5 days, antibodies at 10 μg/mL",reduced
same,CD3+ T cell numbers,"[3]; MLR, BCL-2 inhibitors at 1 μM",declined comparably
same,production of IFNγ (secreted),"[3]; MLR, BCL-2 inhibitors at 1 μM",not antagonized
same,proportion of CD3+ T-cells that produce IFNγ,"[3]; MLR, BCL-2 inhibitors at 1 μM",increase
same,total number of lymphocytes,"[4]; 0.05 μg/mL CMV antigen, day 4",reduced the total number of lymphocytes in a dose-dependent manner
same,"remaining T-cell activation, MFI of IFNγ and IL-2 (CD8+ T-cells)","[4]; CMV antigen, re-stimulated with PMA/ionomycin on day 4",dose-dependent inversely proportional increase
same,central memory T-cells,[5],not affected
same,sensitivity of naïve T-cells,[5],sensitive
same,proportion of effector memory T-cells relative to surviving T-cells,[5]; increased concentrations,increased
